Source: patent US7202085B2, “Control of gene expression in eukaryotic cells” (Calgene LLC, priority 1999, dated 2007)
Several values for one entry are separate records, joined by “and”; a condition that tells them apart may be missing. Equal entries are not always repeated. Where two headings read alike, the source gives them in different places.

Experiments:
tra box-GUS reporter = test system: tra box-GUS reporter
Experimental: Plasmids for transfection were isolated and purified using Megaprep plasmid DNA isolation kit (Qiagen). Carrot protoplasts for transfections were prepared from carrot cell suspension culture and transfected with purified DNA as described (Ulmasov et al., Plant Cell 7:1611–1623, 1995). Briefly, 10 μg of the reporter plasmid and 5 μg of the effector plasmid were incubated with 10^6 protoplasts for five minutes at the room temperature in the presence of polyethylene glycol-calcium solution. After diluting approximately 10-fold with the culture medium, the protoplasts were incubated in the dark for 36 hours either in the presence or absence of the inducer 3-oxohexanoyl-homoserine lactone (OHHL, racemic mixture of the L- and D-isomers, purchased from Sigma Chemical Co., St Louis, Mo.). After incubation, protoplasts were collected by low-speed centrifugation, lysed and the level of GUS activity was measured using fluorometric GUS assay (Jefferson et al., EMBO J. 6:3901–3907, 1987).
Ten μg of the reporter plasmid (pMON53031), and indicated amount of the 35S effector plasmid per reaction was used for transfection in triplicate. […] The “− inducer” and “+ inducer” columns are averages of the GUS activities.
These constructs were tested for background GUS activity and TraR responsiveness in carrot protoplasts.

VP16-TraR [1] = test system: VP16-TraR
Experimental: Transgenic Arabidopsis plants containing TraA8(3×)-GUS reporter and 35S-VP16-TraR activator genes (pMON53077) were analyzed for induction of GUS activity. […] GUS assays were conducted as described by Jefferson et al. (supra).
In addition, detached leaves incubated for 24 hours in MS medium with or without 100 μM HSL were visualized for induction of GUS activity after staining.

VP16-TraR [2] = assay: Transient GUS reporter assay in carrot protoplasts with VP16-TraR effector and tra box reporter; assay type: cell-based, Agrobacterium tumefaciens; set-up: 4, 5, 6 (replicate GUS activities, +inducer): unit not given here
TraR = target: T1, TraR (Agrobacterium tumefaciens, UniProt P33905); assay: β-galactosidase reporter assay in yeast (TraA8 element, galactose-inducible TraR); assay type: cell-based; conditions: strain YPH499, c1.5 and 6, 3 copies of TraA8 element; 5 hrs growth on galactose; 50 μM C8-HSL
T1 construct: expressed in transfected cells; host or cells: Saccharomyces cerevisiae (strain 204142; YPH499)

[3] = Table 7 lane 4: TraA8(3X), cl.4(60 μg) + CAT, 12.5 μM C8-AHL
[4] = Table 7 lane 6: TraA8(3X), cl.4(60 μg) +TraM, 12.5 μM C8-AHL
[5] = Table 7 lane 7: TraA8(3X), cl.4(60 μg) +TraS, 12.5 μM C8-AHL
[6] = Table 8 lane 2: TraA8(4X) +CAT, 25 μM C8-HSL
[7] = Table 6 lane 20: TraA9(3X), cl.8 +HA-VP16-TraR, 12.5 μM C8-AHL

T1 sequence (P33905 whole entry): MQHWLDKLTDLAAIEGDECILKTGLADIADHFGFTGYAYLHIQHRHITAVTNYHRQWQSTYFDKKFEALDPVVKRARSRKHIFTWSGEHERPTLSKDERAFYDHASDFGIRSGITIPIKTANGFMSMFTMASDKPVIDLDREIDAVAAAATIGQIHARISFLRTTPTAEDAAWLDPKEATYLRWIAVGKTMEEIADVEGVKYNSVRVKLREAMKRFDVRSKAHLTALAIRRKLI

CCCCCC(=O)CC(=O)N[C@H]1CCOC1=O [C8-HSL, 3-oxooctanoyl-L-homoserine lactone]
4, 5, 6 (replicate GUS activities, +inducer) (tra box-GUS reporter; [3]): 76.6 and 75.1 and 58.1 | +inducer (average GUS activity) (tra box-GUS reporter; [3]): 70.0 | 4, 5, 6 (replicate GUS activities, +inducer) (tra box-GUS reporter; [4]): 105.0 and 102.1 and 86.8 | +inducer (average GUS activity) (tra box-GUS reporter; [4]): 98.0 | 4, 5, 6 (replicate GUS activities, +inducer) (tra box-GUS reporter; [5]): 143.6 and 128.8 and 134.8 | +inducer (average GUS activity) (tra box-GUS reporter; [5]): 135.7 | 4, 5, 6 (replicate GUS activities, +inducer) (tra box-GUS reporter; [6]): 1101.9 and 791.0 and 1071.3 | +inducer (average GUS activity) (tra box-GUS reporter; [6]): 988.1 | histochemical GUS staining (VP16-TraR [1]; detached caulline leaves, 24 hours in MS medium, 100 μM HSL): uniform induced activity | +Inducer (GUS activity) (VP16-TraR [1]; plant s3553-1): 556.56 | +Inducer (GUS activity) (VP16-TraR [1]; plant s3553-2): 554.08 | +Inducer (GUS activity) (VP16-TraR [1]; plant s3554-1): 3101.09 | +Inducer (GUS activity) (VP16-TraR [1]; plant s3554-2): 3098.61 | +Inducer (GUS activity) (VP16-TraR [1]; plant s3559-1): 599.93 | +Inducer (GUS activity) (VP16-TraR [1]; plant s3559-2): 597.45 | +Inducer (GUS activity) (VP16-TraR [1]; plant s3562-1): 75.93 | +Inducer (GUS activity) (VP16-TraR [1]; plant s3562-2): 73.45 | +Inducer (GUS activity) (VP16-TraR [1]; plant s3570-1): 4831.21 | +Inducer (GUS activity) (VP16-TraR [1]; plant s3570-2): 4828.73 | +Inducer (GUS activity) (VP16-TraR [1]; plant s3573-1): 768.65 | +Inducer (GUS activity) (VP16-TraR [1]; plant s3573-2): 766.17 | +Inducer (GUS activity) (VP16-TraR [1]; plant s3575-1): 3453.00 | +Inducer (GUS activity) (VP16-TraR [1]; plant s3575-2): 3450.52 | +Inducer (GUS activity) (VP16-TraR [1]; plant s3582-1): 559.86 | +Inducer (GUS activity) (VP16-TraR [1]; plant s3582-2): 557.38 | +Inducer (GUS activity) (VP16-TraR [1]; plant s3594-1): 515.77 | +Inducer (GUS activity) (VP16-TraR [1]; plant s3594-2): 513.29 | +Inducer (GUS activity) (VP16-TraR [1]; plant wild-type): 2.48 | 4, 5, 6 (replicate GUS activities, +inducer) (VP16-TraR [2]; Table 5 lane 2: tra box (6X), cl.7 +HA-VP16-TraR, 12.5 μM C8-AHL): 933.8 and 1033.2 and 995.1 | 4, 5, 6 (replicate GUS activities, +inducer) (VP16-TraR [2]; Table 5 lane 4: traA1(3X), cl.35 +HA-VP16-TraR, 12.5 μM C8-AHL): 1896.4 and 1959.7 and 1968.4 | 4, 5, 6 (replicate GUS activities, +inducer) (VP16-TraR [2]; Table 5 lane 6: traA2(3X), cl.43 +HA-VP16-TraR, 12.5 μM C8-AHL): 2198.3 and 2341.9 and 2304.6 | 4, 5, 6 (replicate GUS activities, +inducer) (VP16-TraR [2]; Table 5 lane 8: traA3(3X), cl.4 +HA-VP16-TraR, 12.5 μM C8-AHL): 117.3 and 111.1 | 4, 5, 6 (replicate GUS activities, +inducer) (VP16-TraR [2]; Table 5 lane 10: traA4(3X), cl.23 +HA-VP16-TraR, 12.5 μM C8-AHL): 142.9 and 112.2 and 113.5 | 4, 5, 6 (replicate GUS activities, +inducer) (VP16-TraR [2]; Table 5 lane 12: traA5(3X), cl.2 +HA-VP16-TraR, 12.5 μM C8-AHL): 21.3 and 18.5 and 21.8 | 4, 5, 6 (replicate GUS activities, +inducer) (VP16-TraR [2]; Table 5 lane 14: traA6(3X), cl.21 +HA-VP16-TraR, 12.5 μM C8-AHL): 64.8 and 64.7 | 4, 5, 6 (replicate GUS activities, +inducer) (VP16-TraR [2]; Table 5 lane 16: traA7(3X), cl.15 +HA-VP16-TraR, 12.5 μM C8-AHL): 237.5 and 226.8 and 240.1 | 4, 5, 6 (replicate GUS activities, +inducer) (VP16-TraR [2]; Table 5 lane 18: traA8(3X), cl.4 +HA-VP16-TraR, 12.5 μM C8-AHL): 828.8 and 874.3 and 960.9 | 4, 5, 6 (replicate GUS activities, +inducer) (VP16-TraR [2]; Table 5 lane 20: traA9(3X), cl.8 +HA-VP16-TraR, 12.5 μM C8-AHL): 65.4 and 65.3 and 60.5 | 4, 5, 6 (replicate GUS activities, +inducer) (VP16-TraR [2]; Table 6 lane 2: Tra box(3X), cl.5 +HA-VP16-TraR, 12.5 μM C8-AHL): 1350.6 and 1542.2 and 1835.6 | 4, 5, 6 (replicate GUS activities, +inducer) (VP16-TraR [2]; Table 6 lane 4: TraA1(3X), cl.35 +HA-VP16-TraR, 12.5 μM C8-AHL): 1426.4 and 1490.9 and 1763.9 | 4, 5, 6 (replicate GUS activities, +inducer) (VP16-TraR [2]; Table 6 lane 6: TraA2(3X), cl.43 +HA-VP16-TraR, 12.5 μM C8-AHL): 1757.9 and 2255.2 and 2158.0 | 4, 5, 6 (replicate GUS activities, +inducer) (VP16-TraR [2]; Table 6 lane 8: TraA3(3X), cl.4 +HA-VP16-TraR, 12.5 μM C8-AHL): 106.3 and 96.1 | 4, 5, 6 (replicate GUS activities, +inducer) (VP16-TraR [2]; Table 6 lane 10: TraA4(3X), cl.23 +HA-VP16-TraR, 12.5 μM C8-AHL): 108.1 and 108.3 and 112.6 | 4, 5, 6 (replicate GUS activities, +inducer) (VP16-TraR [2]; Table 6 lane 12: TraA5(3X), cl.2 +HA-VP16-TraR, 12.5 μM C8-AHL): 91.6 and 72.7 and 82.6 | 4, 5, 6 (replicate GUS activities, +inducer) (VP16-TraR [2]; Table 6 lane 14: TraA6(3X), cl.21 +HA-VP16-TraR, 12.5 μM C8-AHL): 1.4 and 1.9 and 6.3 | 4, 5, 6 (replicate GUS activities, +inducer) (VP16-TraR [2]; Table 6 lane 16: TraA7(3X), cl.15 +HA-VP16-TraR, 12.5 μM C8-AHL): 216.9 and 217.5 and 275.9 | 4, 5, 6 (replicate GUS activities, +inducer) (VP16-TraR [2]; Table 6 lane 18: TraA8(3X), cl.4 +HA-VP16-TraR, 12.5 μM C8-AHL): 1774.0 and 1839.9 and 1663.3 | 4, 5, 6 (replicate GUS activities, +inducer) (VP16-TraR [2]; [7]): 307.2 and 197.9 and 183.9 | +inducer (average GUS activity) (VP16-TraR [2]; [7]): 229.7 | 4, 5, 6 (replicate GUS activities, +inducer) (VP16-TraR [2]; Table 6 lane 22: TraA10(3X), cl.17 +HA-VP16-TraR, 12.5 μM C8-AHL): 621.1 and 629.5 and 672.7 | 4, 5, 6 (replicate GUS activities, +inducer) (VP16-TraR [2]; Table 6 lane 24: TraA-1(3X), cl.14 +HA-VP16-TraR, 12.5 μM C8-AHL): 25.0 and 30.0 | 4, 5, 6 (replicate GUS activities, +inducer) (VP16-TraR [2]; Table 7 lane 3: TraA8(4X), cl.16 +HA-VP16-TraR, 12.5 μM C8-AHL): 1190.9 and 991.1 and 863.8 | 4, 5, 6 (replicate GUS activities, +inducer) (VP16-TraR [2]; Table 7 lane 5: TraA8(3X), cl.4(60 μg) +TraR, 12.5 μM C8-AHL): 1867.2 and 1559.0 and 1569.7 | 4, 5, 6 (replicate GUS activities, +inducer) (VP16-TraR [2]; Table 7 lane 8: TraA8(3X), cl.4(25 μg) + TraR + TraM, 12.5 μM C8-AHL): 13.5 and 9.6 and 12.1 | 4, 5, 6 (replicate GUS activities, +inducer) (VP16-TraR [2]; Table 7 lane 9: TraA8(3X), cl.4 (25 μg) + TraR + TraS, 12.5 μM C8-AHL): 279.4 and 224.4 and 241.0 | 4, 5, 6 (replicate GUS activities, +inducer) (VP16-TraR [2]; Table 7 lane 10: TraA8(3X), cl.4 (25 μg) + TraR + CAT, 12.5 μM C8-AHL): 698.2 and 680.1 and 908.4 | 4, 5, 6 (replicate GUS activities, +inducer) (VP16-TraR [2]; Table 8 lane 3: TraA8(4X) +TraR, 25 μM (row 0/25 μM)): 7034.5 and 8005.8 and 7531.5 | β-gal activity (chemiluminescent assay) (TraR): strong induction
